Measurements from PubChem BioAssay AID330 (DTP/NCI, 2004).
Values joined by “and” are separate entries in the source; they are usually repeats but may differ in a detail not shown here. Equal values may be shown once. Inconclusive results and toxic doses are left out. The calls were made as follows: active = survival T/C of 150% or more; inactive = T/C below 125% in these data.

Test system: P388 leukemia ip, CD2F1 mice, survival T/C
Assay: NCI In Vivo Anticancer Drug Screen. Data for tumor model P388 Leukemia (intraperitoneal) in CD2F1 (CDF1) mice
Conditions: endpoint: median survival time, higher = longer survival
Method in brief: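 Mice carrying the transplanted tumor received test compound or vehicle. Survival was recorded in each group, and the value is the treated-group measurement divided by that of the vehicle-treated control group.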

[1] = dose: 60.0 mg/kg/injection, schedule: Q01DX005 (ip), vehicle: saline
[2] = dose: 120.0 mg/kg/injection, schedule: Q01DX005 (ip), vehicle: saline
[3] = dose: 240.0 mg/kg/injection, schedule: Q01DX005 (ip), vehicle: saline
[4] = dose: 50.0 mg/kg/injection, schedule: Q01DX009 (ip), vehicle: saline
[5] = dose: 100.0 mg/kg/injection, schedule: Q01DX009 (ip), vehicle: saline
[6] = dose: 200.0 mg/kg/injection, schedule: Q01DX009 (ip), vehicle: saline
[7] = dose: 25.0 mg/kg/injection, schedule: Q01DX009 (ip), vehicle: other
[8] = dose: 50.0 mg/kg/injection, schedule: Q01DX009 (ip), vehicle: other
[9] = dose: 100.0 mg/kg/injection, schedule: Q01DX009 (ip), vehicle: other
[10] = dose: 25.0 mg/kg/injection, schedule: Q01DX009 (ip), vehicle: saline with Tween-80
[11] = dose: 50.0 mg/kg/injection, schedule: Q01DX009 (ip), vehicle: saline with Tween-80
[12] = dose: 100.0 mg/kg/injection, schedule: Q01DX009 (ip), vehicle: saline with Tween-80
[13] = dose: 100.0 mg/kg/injection, schedule: Q01DX001 (ip), vehicle: saline with Tween-80
[14] = dose: 200.0 mg/kg/injection, schedule: Q01DX001 (ip), vehicle: saline with Tween-80
[15] = dose: 400.0 mg/kg/injection, schedule: Q01DX001 (ip), vehicle: saline with Tween-80
[16] = dose: 25.0 mg/kg/injection, schedule: Q01DX009 (ip), vehicle: saline

Measured: T/C

COC(=O)c1cc(-c2ccncc2)[nH]c(=O)c1C#N
inactive: [1] 101 % of control | [2] 99 % of control | [3] 94 % of control

Clc1cccc(/C=C/c2ccnnc2)c1
inactive: [4] 101 % of control | [5] 86 % of control and 97 % of control | [6] 103 % of control and 96 % of control

CCCCCCCCCCCCCCCCS(=O)CC(O)COC(=O)c1ccc(C(=O)OCC(O)CS(=O)CCCCCCCCCCCCCCCC)cc1 (centres undefined)
inactive: [7] 104 % of control | [8] 114 % of control | [9] 122 % of control

c1ccc(C2C(c3ccccn3)C(c3ccccn3)C2c2ccccn2)nc1 (centres undefined)
inactive: dose: 100.0 mg/kg/injection, schedule: Q01DX001 (ip), vehicle: Klucel (hydroxypropylcellulose) (HPC) 95 % of control | dose: 200.0 mg/kg/injection, schedule: Q01DX001 (ip), vehicle: Klucel (hydroxypropylcellulose) (HPC) 94 % of control | dose: 400.0 mg/kg/injection, schedule: Q01DX001 (ip), vehicle: Klucel (hydroxypropylcellulose) (HPC) 95 % of control

CCCCCCCCCCCCCCCC(=O)O[C@@H]1[C@@H](C)[C@@]2(O)[C@@H](C=C(CO)C[C@]3(O)C(=O)C(C)=C[C@@H]23)[C@H]2[C@]1(OC(C)=O)[C@]2(C)CO
inactive: dose: 0.13 mg/kg/injection, schedule: Q01DX005 (ip), vehicle: distilled water + Tween-80 117 % of control and 120 % of control | dose: 0.25 mg/kg/injection, schedule: Q01DX005 (ip), vehicle: distilled water + Tween-80 111 % of control | dose: 0.5 mg/kg/injection, schedule: Q01DX005 (ip), vehicle: distilled water + Tween-80 106 % of control

CN1CCOP(=O)(Oc2ccccc2)N1 (centres undefined)
inactive: dose: 60.0 mg/kg/injection, schedule: Q01DX005 (ip), vehicle: saline with Tween-80 103 % of control | dose: 120.0 mg/kg/injection, schedule: Q01DX005 (ip), vehicle: saline with Tween-80 99 % of control | dose: 240.0 mg/kg/injection, schedule: Q01DX005 (ip), vehicle: saline with Tween-80 100 % of control

O=C1C2CCCCC2C1(Cl)Cl (centres undefined)
inactive: [10] 103 % of control | [11] 99 % of control | [12] 118 % of control

Cc1c(N=Nc2cccc(Cl)c2)c(-c2ccccc2)nn1C(N)=S
inactive: [13] 89 % of control | [14] 92 % of control | [15] 90 % of control

CC1(C)CC(C)(OC(=O)c2ccc(Cl)cc2)[N+]([O-])=N1 (centres undefined)
inactive: dose: 12.5 mg/kg/injection, schedule: Q01DX009 (ip), vehicle: other 98 % of control | [7] 98 % of control | [8] 106 % of control | [9] 89 % of control | dose: 200.0 mg/kg/injection, schedule: Q01DX009 (ip), vehicle: other 89 % of control

CCCCNCC(O)c1cc2c(Cl)cc(Cl)cc2c2cc(C(F)(F)F)ccc12 (centres undefined)
inactive: dose: 6.25 mg/kg/injection, schedule: Q01DX009 (ip), vehicle: saline with Tween-80 98 % of control | dose: 12.5 mg/kg/injection, schedule: Q01DX009 (ip), vehicle: saline with Tween-80 106 % of control | [10] 102 % of control

O=P(O)(O)OCC1(O)OCC(O)C(O)C1O (centres undefined)
inactive: dose: 12.5 mg/kg/injection, schedule: Q01DX005 (ip), vehicle: saline 106 % of control | dose: 25.0 mg/kg/injection, schedule: Q01DX005 (ip), vehicle: saline 104 % of control | dose: 50.0 mg/kg/injection, schedule: Q01DX005 (ip), vehicle: saline 99 % of control and 103 % of control

O=c1ccc(=O)[nH][nH]1
inactive: [16] 102 % of control | [4] 105 % of control and 88 % of control | [5] 99 % of control and 102 % of control | [6] 99 % of control and 100 % of control | dose: 400.0 mg/kg/injection, schedule: Q01DX009 (ip), vehicle: saline 99 % of control and 110 % of control

[CH3][Sn]([CH3])([O]C(=O)CNC(=O)c1ccccc1)[O]C(=O)CNC(=O)c1ccccc1
inactive: dose: 0.79 mg/kg/injection, schedule: Q01DX001 (ip), vehicle: Klucel (hydroxypropylcellulose) (HPC) 97 % of control | dose: 1.56 mg/kg/injection, schedule: Q01DX001 (ip), vehicle: Klucel (hydroxypropylcellulose) (HPC) 93 % of control | dose: 3.12 mg/kg/injection, schedule: Q01DX001 (ip), vehicle: Klucel (hydroxypropylcellulose) (HPC) 100 % of control

C=C1C(=O)OC2/C=C(\CO)CC/C=C(/C=O)CC(O)C12 (centres undefined)
inactive: dose: 1.89 mg/kg/injection, schedule: Q01DX005 (ip), vehicle: saline 101 % of control | dose: 3.75 mg/kg/injection, schedule: Q01DX005 (ip), vehicle: saline 101 % of control | dose: 7.5 mg/kg/injection, schedule: Q01DX005 (ip), vehicle: saline 99 % of control | dose: 15.0 mg/kg/injection, schedule: Q01DX005 (ip), vehicle: saline 96 % of control

COc1cccc(C(c2cc3c(cc2O)OCO3)N2CCN(C(c3cc4c(cc3O)OCO4)c3cccc(OC)c3O)CC2)c1O (centres undefined)
inactive: [1] 98 % of control | [2] 98 % of control | [3] 100 % of control

CC(=O)OC1CSC(OC(C)=O)C(OC(C)=O)C1[N+](=O)[O-] (centres undefined)
inactive: dose: 100.0 mg/kg/injection, schedule: Q04DX002 (ip), vehicle: saline 99 % of control | dose: 200.0 mg/kg/injection, schedule: Q04DX002 (ip), vehicle: saline 115 % of control

C=C1CC2(CCCC3(C)CCC(C(C)C)CC32C)OC1=O (centres undefined)
inactive: dose: 100.0 mg/kg/injection, schedule: Q01DX001 (ip), vehicle: saline 101 % of control | dose: 200.0 mg/kg/injection, schedule: Q01DX001 (ip), vehicle: saline 106 % of control | dose: 400.0 mg/kg/injection, schedule: Q01DX001 (ip), vehicle: saline 110 % of control

CCCCCCCCCCCCOc1ccccc1
inactive: [11] 100 % of control | [12] 104 % of control | dose: 200.0 mg/kg/injection, schedule: Q01DX009 (ip), vehicle: saline with Tween-80 100 % of control

OC1(CC2CO2)CCCc2ccccc21 (centres undefined)
inactive: dose: 50.0 mg/kg/injection, schedule: Q01DX009 (ip), vehicle: Klucel (hydroxypropylcellulose) (HPC) 93 % of control | dose: 100.0 mg/kg/injection, schedule: Q01DX009 (ip), vehicle: Klucel (hydroxypropylcellulose) (HPC) 91 % of control | dose: 200.0 mg/kg/injection, schedule: Q01DX009 (ip), vehicle: Klucel (hydroxypropylcellulose) (HPC) 93 % of control

CCN(CC)Cc1cc(Nc2ccnc3cc(N(C)C)ccc23)ccc1O
inactive: dose: 6.25 mg/kg/injection, schedule: Q01DX009 (ip), vehicle: saline 103 % of control | dose: 12.5 mg/kg/injection, schedule: Q01DX009 (ip), vehicle: saline 115 % of control | [16] 115 % of control

c1ccc(C(Sc2c[nH]c3ccccc23)(c2ccccc2)c2ccccc2)cc1 (tested in a mixture with another compound)
inactive: [13] 100 % of control | [14] 90 % of control | [15] 92 % of control

CC12CCN=C1c1ccc3cc(O)ccc3c1CC2 (centres undefined)
inactive: dose: 100.0 mg/kg/injection, schedule: Q01DX001 (sc), vehicle: steriod suspending solution 104 % of control | dose: 200.0 mg/kg/injection, schedule: Q01DX001 (sc), vehicle: steriod suspending solution 118 % of control | dose: 400.0 mg/kg/injection, schedule: Q01DX001 (sc), vehicle: steriod suspending solution 100 % of control

CC1(C)NC(=O)N(CN2CCOCC2)C1=O
inactive: dose: 30.0 mg/kg/injection, schedule: Q01DX005 (ip), vehicle: saline 104 % of control | [1] 109 % of control and 111 % of control and 93 % of control | [2] 106 % of control and 119 % of control and 123 % of control | [3] 106 % of control and 116 % of control and 120 % of control
